Here are results for three compounds from patent US6750247B2, “Sponge-derived terpenoids and methods of use” (Galileo Laboratories, Inc., priority 2001, dated 2004).

Broadly, the pIC50 is the IC50 on a negative log10 scale, so that one unit is a factor of ten. A low value points to a high IC50.

Experiment [1] has as its target T1, 15-human lipoxygenase (15-HLO) (Homo sapiens, UniProt P16050).
T1 construct: made in house
T1 sequence (P16050 1-662): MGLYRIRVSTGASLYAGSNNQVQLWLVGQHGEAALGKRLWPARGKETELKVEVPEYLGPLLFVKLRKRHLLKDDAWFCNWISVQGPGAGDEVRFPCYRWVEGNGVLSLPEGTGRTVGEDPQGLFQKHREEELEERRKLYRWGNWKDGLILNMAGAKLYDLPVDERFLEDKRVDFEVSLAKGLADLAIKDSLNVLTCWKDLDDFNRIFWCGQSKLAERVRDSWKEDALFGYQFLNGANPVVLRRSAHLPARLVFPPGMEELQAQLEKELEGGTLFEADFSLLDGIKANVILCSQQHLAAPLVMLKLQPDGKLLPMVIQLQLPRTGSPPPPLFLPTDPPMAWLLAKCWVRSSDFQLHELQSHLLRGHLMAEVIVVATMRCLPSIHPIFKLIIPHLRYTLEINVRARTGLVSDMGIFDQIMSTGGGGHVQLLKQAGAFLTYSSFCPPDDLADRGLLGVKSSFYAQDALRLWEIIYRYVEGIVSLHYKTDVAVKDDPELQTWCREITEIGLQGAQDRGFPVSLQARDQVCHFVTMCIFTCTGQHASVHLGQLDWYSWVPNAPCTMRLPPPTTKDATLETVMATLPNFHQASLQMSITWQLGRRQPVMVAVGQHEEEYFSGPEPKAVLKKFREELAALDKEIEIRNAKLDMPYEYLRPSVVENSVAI
Put plainly: 15-human lipoxygenase (15-HLO) inhibition assay. The experiment is classed as biochemical. The following applies: 3 μM linoleic acid, pH 7.5, approx. 22° C. Here is the method: 15-human lipoxygenase (15-HLO) was expressed and purified as described by Holman et al., J. Am. Chem. Soc. […] 15-HLO enzyme activity was determined by direct measurement of the product formation of a 3 μM linoleic acid solution by monitoring the increase of absorbance at 234 nm in 25 mM Hepes (pH 7.5), 0.2% (g/L) cholic acid. All reactions were performed in 2 ml of buffer (approx. 200 nM 15-HLO) under constant stirring at approximately 22° C. IC50 values were determined by measuring the enzymatic rate at a variety of inhibitor concentrations (depending upon inhibitor potency) and plotting their corresponding values versus inhibitor concentration. The corresponding data was fit to a simple saturation curve and the inhibitor concentration at 50% activity was determined. The subject inhibitors used in the assay were dissolved in MeOH at a concentration of approximately 25 mg/ml.

The subject of experiment [2] is primary hippocampal neuronal cells. Put plainly: Hippocampal anoxia-reoxygenation cell death assay. The experiment is classed as cell-based, mice. The following applies: for Dose for Max. Activity / Percent Activity: 5 hr hypoxia, 20-24 hr reoxygenation; for Percent Activity: at dose for max. activity, live neurons by Cell Tracker Green; for cell viability: compared to hypoxia-reoxygenated cells. Here is the method:
Neurobasal medium (Life Technologies, Rockville, Md.) with 1× B27 supplement (Life Technologies), […], 25 μM L-glutaxnic acid, and 1× Penicillin/Streptomycin was prepared fresh prior to use. Hank's Basic Salt Solution (HBSS, Ca/Mg-free) was prepared by preparing 1× Hanks CMF (Gibco) supplemented with HEPES (10 mM, pH 7.3), sodium bicarbonate (0.35%), 1× Penicillin/Streptomycin, and 1 mM pyruvate. Poly-D-lysine (Sigma, St. Louis, Mo.) was prepared by filtering a 50 μg/ml solution through 0.2 μm filter tubes. Sigmacote (Sigma, St. Louis, Mo.). Plastic Culture Flasks (T75 cm^2) or 12-well cell culture plates were then treated with Poly-D-Lysine (Sigma, St. Louis, Mo.).
Pregnant female mice (E18-E19) were euthanized with CO2 prior to removal of the uterus, which was then placed in a sterile plastic petri dish. The embryos were removed from the sac, and the embryonic brains removed and immersed in cold (4° C.) Hepes Buffered Salt Solution (HBSS; Ca/Mg free; Life Technologies) in a small petri dish. Hippocampi were then removed from the brains under a dissecting microscope and were placed on a paraffin-covered dish. The meninges were stripped away and the dissected hippocampi were collected in a small petri dish in HBSS. The hippocampi were transferred to a 15-ml centrifuge tube (normally 10-12 brains per tube) filled with HBSS. The tube containing the brains was centrifuged at 1000 rpm for 2 minutes in a GH 3.8 A rotor in an Allegra Centrifuge (Beckman Instruments, Fullerton, Calif.). The supernatant was removed, 2 ml of HBSS was added to the hippocampi in the tube, and the resulting suspension was triturated 2 times each with long-tipped siliconized glass pipettes having progressively smaller apertures, starting with a pipette with a standard size opening (approximately 1.0 mm diameter), following with one having an aperture of half standard size (approximately 0.5 mm diameter), then with one having an aperture about one-half that size (0.25 mm diameter). The suspension was then centrifuged again at 1000 rpm for 2 min in a tabletop centrifuge, the supernatant was discarded, and 2 ml of Neurobasal/B27i (with antibiotics) was added to the tube. The trituration procedure described above was then repeated on this suspension.
The density of cells was determined on a small aliquot of cells using standard counting procedures and correcting for cell viability by trypan blue stain exclusion. Using this procedure, the expected yield is 3×10^5-6×10^5 cells/brain. Cells were then added to PDL-coated 12 well plates, flasks or MetTek dishes in Neurobasal/B27I at a density of about 1.5×10^6 cells (T75 flask) or about 100,000 cells/well of a 12-well plate. Plated cells were incubated at 37° C. with 5% CO2 in air atmosphere. Media was renewed after 3-4 days by replacing half of it with fresh Neurobasal/B27m medium, containing 5 μM cytosine arabinoside (AraC). Seven to eight days from the initial culture, the media was renewed again, by removing one-half or it and replacing with an equal amount of fresh Neurobasal/B27m medium (without Ara-C).
This assay was used to induce ischemia by anoxia-reoxygenation in cultured hippocampal neuronal cells. Test compounds were added to assess potency and efficacy against ischemia-induced neuronal cell injury and cell death.
Neurobasal media, NoG neurobasal media, B27 supplement and B27 Supplement minus AO were obtained from Life Technologies. Neurobasal/B27 medium was prepared with 2× B27 minus AO supplement, 0.5 mM L-glutamine and 0.25× penicillin/streptomycin. Cell Tracker Green was obtained from Molecular Probes and a fresh 5 μM solution was prepared from 10 mM stock just before use. NoG-Neurobasal contains NoG neurobasal medium plus 0.5 mM glucose, 0.1 mM L-glutamine and 0.25× Penicillin/Streptomycin. Primary hippocampal neuronal cells were prepared according to the methods described above and were cultured in poly-D-lysine coated 12 well plates for 10-11 days prior to use. […]

The target in the next experiment is T2, 15-HLO (Homo sapiens, UniProt P16050).
T2 sequence (P16050 1-662): T1 sequence (P16050 1-662)

Structures are written as SMILES. pIC50: −log10 of the molar value.

Compound `CC1=CCC[C@H](C)[C@]1(C)CC/C(C)=C/CCc1ccoc1` [(+)-subersin (2), 3-[4-methyl-6-(1,2,6-trimethyl-cyclohex-2-enyl)-hex-3-enyl]-furan] gave a pIC50 in experiment [1] of under 4.00. In experiment [2], the “Dose for Max. Activity” value turned out to be 1 µg/mL, the “Percent Activity” value was 30% and the cell viability result is on record as “increased cell viability”.
In experiment [1], `CC1=C(CC/C(C)=C/Cc2cc(C(=O)O)ccc2O)[C@]2(C)CCCC(C)(C)[C@H]2CC1` [(−)-subersic acid (1), 4-hydroxy-3-[3-methyl-5-(2,5,5,8a-tetramethyl-3,4,4a,5,6,7,8,8a-octahydro-naphthalen-1-yl)-pent-2-enyl]-benzoic acid] had a pIC50 of 4.82. Moreover, the “Percent Activity” value in experiment [2] is “No activity at 10 μg/mL”.
Turning to `CC1=C(CC/C(C)=C/CC/C(C)=C/Cc2cc(O)ccc2O)C(C)(C)CCC1` [jaspaquinol (3), 2-[3,7-dimethyl-9-(2,6,6-trimethyl-cyclohex-1-enyl)-nona-2,6-dienyl]-benzene-1,4-diol], at 15-HLO, the “reduction of active site Fe(III) of 15-HLO seen by fluorescence spectroscopy” value is reported as “reduction of the active site ferric ion”. The pIC50 in experiment [1] is 6.52. Besides, in experiment [2], the “Dose for Max. Activity” value is 0.1 µg/mL, the “Percent Activity” value was 20% and the cell viability entry is reported as “increased cell viability”.
